Reference: patent US20240368135A1 (VERTEX PHARMACEUTICALS INCORPORATED, priority 2021, published 2024)
Where two headings read alike, the source gives them in different places.

Biological target: human NaV 1.8 (Homo sapiens, UniProt Q9Y5Y9)
Assay: E-VIPR assay detecting and measuring NaV inhibition properties
Assay type: cell-based
Details: HEK cells expressing truncated human NaV 1.8
Text: Sodium ion channels are voltage-dependent proteins that can be activated by inducing membrane voltage changes by applying electric fields. The electrical stimulation instrument and methods of use, referred to as E-VIPR, are described in International Publication No. WO 2002/008748 A3 and C.-J. Huang et al. Characterization of voltage-gated sodium channel blockers by electrical stimulation and fluorescence detection of membrane potential, 24 Nature Biotech. 439-46 (2006), both of which are incorporated by reference in their entirety. The instrument comprises a microtiter plate handler, an optical system for exciting the coumarin dye while simultaneously recording the coumarin and oxonol emissions, a waveform generator, a current- or voltage-controlled amplifier, and parallel electrode pairs that are inserted into assay plate wells. Under integrated computer control, this instrument passes user-programmed electrical stimulus protocols to cells within the wells of the microtiter plate.
16-20 hours prior to running the assay on E-VIPR, HEK cells expressing a truncated form of human NaV 1.8 with full channel activity were seeded into microtiter 384-well plates, pre-coated with matrigel, at a density of 25,000 cells per well. 2.5-5% KIR2.1 Bacmam virus was added to the final cell suspension before seeding into cell plates. HEK cells were grown in Dulbecco's Modified Eagle's Medium (DMEM) supplemented with 10% FBS (Fetal Bovine Serum, qualified; Sigma #F4135), 1% NEAA (Non-Essential Amino Acids, Gibco #11140), 1% HEPES (Gibco #15630), 1% Pen-Strep (Penicillin-Streptomycin; Gibco #15140) and 5 μg/ml Blasticidin (Gibco #R210-01). Cells were expanded in vented cap cell culture flasks, with 90-95% humidity and 5% CO2.
Human Serum (HS, Millipore #S1P1-01KL, or Sigma SLBR5469V and SLBR5470V as a 50%/50% mixture, for 25% assay final concentration) • Bath 1 Buffer: • Sodium Chloride 160 mM (9.35 g/L), Potassium Chloride, 4.5 mM (0.335 g/L), Glucose 10 mM (1.8 g/L), Magnesium Chloride (Anhydrous) 1 mM (0.095 g/L), Calcium Chloride 2 mM (0.222 g/L), HEPES 10 mM (2.38 g/L) in water. • Na/TMA C1 Bath 1 Buffer: • Sodium Chloride 96 mM (5.61 g/L), Potassium Chloride 4.5 mM (0.335 g/L), Tetramethylammonium (TMA)-Cl 64 mM (7.01 g/L), Glucose 10 mM (1.8 g/L), Magnesium Chloride (Anhydrous) 1 mM (0.095 g/L), Calcium Chloride 2 mM (0.222 g/L) HEPES 10 mM (2.38 g/L) in water. • Hexyl Dye Solution (2× concentration): • Bath 1 Buffer containing 0.5% P-cyclodextrin (made fresh prior to each use, Sigma #C4767), 8 μM CC2-DMPE and 2 μM DiSBAC6(3). The solution was made by adding 10% Pluronic F127 stock equal to combined volumes of CC2-DMPE and DiSBAC6(3). The order of preparation was first mix Pluronic and CC2-DMPE, then add DiSBAC6(3), then while vortexing add Bath 1/p-Cyclodextrin.
Compound Loading Buffer (2× concentration): Na/TMA C1 Bath1 Buffer containing HS (omitted in experiments run in the absence of human serum (HS)) 50%, VABSC-1 1 mM, BSA 0.2 mg/ml (in Bath-1), KCl 9 mM, DMSO 0.625%.
1) To reach the final concentration in each well, 375 nL of each compound was pre-spotted (in neat DMSO) into polypropylene compound plates at 240× desired final concentration from an intermediate stock concentration of 0.075 mM, in an 11 point dose response, 3-fold dilution, resulting in a top dose of 300 nM final concentration in the cell plate. Vehicle control (neat DMSO), and positive control (an established NaV1.8 inhibitor, 25 μM final in assay in DMSO) were added manually to the outermost columns of each plate respectively. The compound plate was backfilled with 45 μL per well of Compound Loading Buffer resulting in a 240 fold dilution of compound following a 1:1 transfer of compound into the cell plate (see Step 6). Final DMSO concentration for all wells in the assay was 0.625% (0.75% DMSO was supplemented to the Compound Loading Buffer for a final DMSO concentration of 0.625%). […]

[1] = no human serum, read-out: IC50 in the E-VIPR Assay
[2] = in the presence of human serum (compound numbers followed by *), read-out: IC50 in the E-VIPR Assay, performed in the presence of human serum

Sequence of human NaV 1.8 (Q9Y5Y9 126-399 limits assumed): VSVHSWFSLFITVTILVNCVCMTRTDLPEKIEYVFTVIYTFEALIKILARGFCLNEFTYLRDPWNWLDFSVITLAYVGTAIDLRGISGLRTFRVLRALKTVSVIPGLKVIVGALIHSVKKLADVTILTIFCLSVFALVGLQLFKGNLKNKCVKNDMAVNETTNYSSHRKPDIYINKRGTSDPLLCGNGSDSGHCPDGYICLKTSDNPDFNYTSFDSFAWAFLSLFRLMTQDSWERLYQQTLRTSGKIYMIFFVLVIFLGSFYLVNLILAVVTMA
Sequence of human NaV 1.8 (Q9Y5Y9 660-890 limits assumed): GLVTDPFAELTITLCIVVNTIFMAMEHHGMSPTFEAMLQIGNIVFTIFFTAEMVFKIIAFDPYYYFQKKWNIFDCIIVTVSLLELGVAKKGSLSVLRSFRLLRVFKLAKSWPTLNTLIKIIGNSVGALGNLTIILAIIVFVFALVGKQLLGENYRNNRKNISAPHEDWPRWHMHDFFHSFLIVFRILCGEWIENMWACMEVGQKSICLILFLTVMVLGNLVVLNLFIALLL
Sequence of human NaV 1.8 (Q9Y5Y9 1148-1722 limits assumed): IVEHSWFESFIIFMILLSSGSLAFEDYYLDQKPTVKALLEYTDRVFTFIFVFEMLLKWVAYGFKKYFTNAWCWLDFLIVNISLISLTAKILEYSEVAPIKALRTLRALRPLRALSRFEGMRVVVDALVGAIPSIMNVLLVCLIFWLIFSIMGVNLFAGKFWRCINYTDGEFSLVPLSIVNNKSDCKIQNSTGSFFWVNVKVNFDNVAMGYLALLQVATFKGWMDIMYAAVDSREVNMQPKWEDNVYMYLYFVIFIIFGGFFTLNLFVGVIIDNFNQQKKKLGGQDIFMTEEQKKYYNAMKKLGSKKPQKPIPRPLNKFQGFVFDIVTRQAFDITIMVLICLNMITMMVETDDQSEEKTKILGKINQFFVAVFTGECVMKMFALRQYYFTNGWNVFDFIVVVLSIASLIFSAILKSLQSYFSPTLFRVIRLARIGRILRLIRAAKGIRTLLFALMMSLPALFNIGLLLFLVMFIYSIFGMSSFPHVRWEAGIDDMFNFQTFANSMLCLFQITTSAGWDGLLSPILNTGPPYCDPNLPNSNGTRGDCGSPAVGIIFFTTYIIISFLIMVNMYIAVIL

IC50 [1] [nM]	IC50 [2] [nM]	SMILES
10 to 100		COc1c([C@H]2[C@H](C(=O)Nc3ccnc(N4CCCN(C)CC4=O)c3)O[C@@](C)(C(F)(F)F)[C@H]2C)ccc(F)c1F [Compound 467, (2R,3S,4S,5R)-3-(3,4-difluoro-2-methoxyphenyl)-4,5-dimethyl-N-(2-(4-methyl-2-oxo-1,4-diazepan-1-yl)pyridin-4-yl)-5-(trifluoromethyl)tetrahydrofuran-2-carboxamide]
< 10		CNS(=O)(=O)c1cc(NC(=O)C2OC(C)(C(F)(F)F)C(C)C2c2ccc(F)c(F)c2OC)ccn1 (single isomer, unassigned) [Compound 456, 3-(3,4-difluoro-2-methoxy-phenyl)-4,5-dimethyl-N-[2-(methylsulfamoyl)-4-pyridyl]-5-(trifluoromethyl)tetrahydrofuran-2-carboxamide]
10 to 100		COCC(O)c1cc(NC(=O)[C@@H]2O[C@@](C)(C(F)(F)F)[C@@H](C)[C@H]2c2ccc(F)c(F)c2OCCN2CCOCC2)ccn1 (single isomer, unassigned) [Compound 595]
100 to 1000		COc1c([C@H]2[C@H](C(=O)Nc3cnc4c(c3)CCC4O)O[C@@](C)(C(F)(F)F)[C@H]2C)ccc(F)c1F (single isomer, unassigned) [Compound 433, rel-(2R*,3S*,4S*,5R*)-3-(3,4-difluoro-2-methoxyphenyl)-N-(7-hydroxy-6,7-dihydro-5H-cyclopenta[b]pyridin-3-yl)-4,5-dimethyl-5-(trifluoromethyl)tetrahydrofuran-2-carboxamide]
10 to 100		COc1c([C@H]2[C@H](C(=O)Nc3ccnc(N4C(=O)[C@@H]5C[C@H]4CN5)c3)O[C@@](C)(C(F)(F)F)[C@H]2C)ccc(F)c1F [Compound 483, (2R,3S,4S,5R)-3-(3,4-difluoro-2-methoxyphenyl)-4,5-dimethyl-N-(2-((1S,4S)-3-oxo-2,5-diazabicyclo[2.2.1]heptan-2-yl)pyridin-4-yl)-5-(trifluoromethyl)tetrahydrofuran-2-carboxamide]
	≥ 1000	COc1c(C2CC(C)(C(F)(F)F)OC2C(=O)Nc2ccnc(C(O)C(C)O)c2)ccc(F)c1F (single isomer, unassigned) [Compound 693]
10 to 100		COc1c([C@H]2[C@H](C(=O)Nc3ccnc(N4C(=O)CNC[C@H]4C)c3)O[C@@](C)(C(F)(F)F)[C@H]2C)ccc(F)c1F [Compound 477, (2R,3S,4S,5R)-3-(3,4-difluoro-2-methoxyphenyl)-4,5-dimethyl-N-(2-((R)-2-methyl-6-oxopiperazin-1-yl)pyridin-4-yl)-5-(trifluoromethyl)tetrahydrofuran-2-carboxamide]
< 10		C[C@H]1[C@@H](c2ccc(F)c(F)c2OCC2COC2)[C@H](C(=O)Nc2ccc3cnnn3c2)O[C@@]1(C)C(F)(F)F [Compound 621, (2R,3S,4S,5R)-3-[3,4-difluoro-2-(oxetan-3-ylmethoxy)phenyl]-4,5-dimethyl-N-(triazolo[1,5-a]pyridin-6-yl)-5-(trifluoromethyl)tetrahydrofuran-2-carboxamide]
< 10		COc1c([C@H]2[C@H](C(=O)Nc3ccnc(N4CC(N)CC4=O)c3)O[C@@](C)(C(F)(F)F)[C@H]2C)ccc(F)c1F (single isomer, unassigned) [Compound 495, rel-(2R*,3S*,4S*,5R*)-N-(2-(4-amino-2-oxopyrrolidin-1-yl)pyridin-4-yl)-3-(3,4-difluoro-2-methoxyphenyl)-4,5-dimethyl-5-(trifluoromethyl)tetrahydrofuran-2-carboxamide]

More lines, now with the values behind:

SMILES	IC50 [1] [nM]	IC50 [2] [nM]
COCC1(CNC(=O)[C@@H]2O[C@@](C)(C(F)(F)F)[C@@H](C)[C@H]2c2ccc(F)c(F)c2OC)CCC1 [Compound 276, (2R,3S,4S,5R)-3-(3,4-difluoro-2-methoxyphenyl)-N-((1-(methoxymethyl)cyclobutyl)methyl)-4,5-dimethyl-5-(trifluoromethyl)tetrahydrofuran-2-carboxamide]	≥ 1000	
COc1c([C@@H]2[C@@H](C(=O)Nc3ccc(C(N)=O)nc3)O[C@](C)(C(F)(F)F)[C@@H]2C)ccc(F)c1C(F)F (stereo in doubt) [Compound 169, rel-5-((2S,3R,4R,5S)-3-(3-(difluoromethyl)-4-fluoro-2-methoxyphenyl)-4,5-dimethyl-5-(trifluoromethyl)tetrahydrofuran-2-carboxamido)picolinamide]	≥ 1000	
CCOc1c([C@H]2[C@H](C(=O)Nc3ccnc(S(C)(=O)=NC)c3)O[C@@](C)(C(F)(F)F)[C@H]2C)ccc(F)c1C (single isomer, unassigned) [Compound 130]	< 10	
COc1c([C@H]2[C@H](C(=O)Nc3ccc(C4(N)COC4)nc3)O[C@@](C)(C(F)(F)F)[C@H]2C)ccc(F)c1F [Compound 213, (2R,3S,4S,5R)-N-(6-(3-aminooxetan-3-yl)pyridin-3-y1)-3-(3,4-difluoro-2-methoxyphenyl)-4,5-dimethyl-5-(trifluoromethyl)tetrahydrofuran-2-carboxamide]	10 to 100	
COc1c([C@H]2[C@H](C(=O)Nc3ccc(SC)nc3)O[C@@](C)(C(F)(F)F)[C@H]2C)ccc(F)c1F [Compound 324, (2R,3S,4S,5R)-3-(3,4-difluoro-2-methoxyphenyl)-4,5-dimethyl-N-(6-(methylthio)pyridin-3-yl)-5-(trifluoromethyl)-tetrahydrofuran-2-carboxamide]	10 to 100	
COc1c([C@H]2[C@H](C(=O)Nc3ccnc([C@@H](O)[C@H](C)O)c3)O[C@@](C)(C(F)(F)F)[C@H]2C)ccc(F)c1F (single isomer, unassigned) [Compound 204, rel-(2R*,3S*,4S*,5R*)-3-(3,4-difluoro-2-methoxyphenyl)-N-(2-((1R,2S)-1,2-dihydroxypropyl)pyridin-4-yl)-4,5-dimethyl-5-(trifluoromethyl)tetrahydrofuran-2-carboxamide]	< 10	
COc1c([C@H]2[C@H](C(=O)Nc3ccnc(-n4ccnc4C)c3)O[C@@](C)(C(F)(F)F)[C@H]2C)ccc(F)c1F [Compound 316, (2R,3S,4S,5R)-3-(3,4-difluoro-2-methoxyphenyl)-4,5-dimethyl-N-(2-(2-methyl-1H-imidazol-1-yl)pyridin-4-yl)-5-(trifluoromethyl)-tetrahydrofuran-2-carboxamide]	< 10	
COc1c(C2C(C(=O)Nc3cnnc(CO)c3)OC(C)(C(F)(F)F)C2C)ccc(F)c1F (stereo not shown) [Compound 18, 3-(3,4-difluoro-2-methoxy-phenyl)-N-[6-(hydroxymethyl)pyridazin-4-yl]-4,5-dimethyl-5-(trifluoromethyl)tetrahydrofuran-2-carboxamide]	< 10	
COc1c([C@H]2[C@H](C(=O)Nc3cn(C[C@@H](O)CO)nc3C)O[C@@](C)(C(F)(F)F)[C@H]2C)ccc(F)c1F [Compound 201, (2R,3S,4S,5R)-3-(3,4-difluoro-2-methoxyphenyl)-N-(1-((R)-2,3-dihydroxypropyl)-3-methyl-1H-pyrazol-4-yl)-4,5-dimethyl-5-(trifluoromethyl)tetrahydrofuran-2-carboxamide]	< 10	
COc1c([C@@H]2[C@@H](C(=O)Nc3cc(C(O)CO)ncc3F)O[C@](C)(C(F)(F)F)[C@@H]2C)ccc(F)c1C (single isomer, unassigned) [Compound 139]		≥ 1000
